# Patent publication US20210046125A1, “DECELLULARIZED TISSUES, HYDROGELS THEREOF, AND USES THEREOF” (UNIVERSITY OF FLORIDA RESEARCH FOUNDATION, priority 2018, published 2021)
# Experiments:
# peripheral nerve tissue [1] = assay: Picogreen DNA assay, total DNA content of apoptosis-decellularized peripheral nerve; design: species or system Sprague Dawley rats
# Procedure: Peripheral nerves were harvested from Sprague Dawley rats and decellularized according to an apoptosis-assisted protocol using 5 μM camptothecin in non-supplemented media at 37° C. for 1 day. Tissue in media without camptothecin, an apoptotic agent, was used as a control. Apoptotic agent treatment was succeeded by washes in saline buffered solutions to optimize cell removal. Furthermore, the tissue was treated with 75 u/mL DNAse for 24 hours to ensure DNA removal. The degree of apoptosis, cellular removal, and matrix preservation was assessed using immunochemistry on nerve tissue sections and fluorescence imaging (FIG. 2). Antibodies used to identify apoptosis, cell removal, and tissue preservation include those against active caspase 3 (Abcam); neurofilament (RT-97, DSHB) and 5100 (Dako); and laminin (Sigma), respectively. […] FIGS. 2B and 2C show nerves treated with 5 μM for 1 day, washed with a hypertonic, and either washed with a […] or treated for 24 hours with DNAse, respectively. […] FIGS. 2E and 2F show treatment with higher camptothecin (10 μM), again for 1 day, and washed similarly to tissue in FIGS. 2B and 2C. These images depict 1) apoptosis induction is necessary prior to washing to effectively remove cellular components and 2) combing apoptosis induction with washes in non-isotonic solutions achieves cellular removal of peripheral nerve tissue. Total DNA content was quantified using a Picogreen DNA assay (Life Technologies) according to manufacturer's instructions.
# peripheral nerve tissue [2] = assay: Induction of apoptosis ex vivo (active caspase 3 immunochemistry, TUNEL); design: species or system Sprague Dawley rats; settings: 10 μM camptothecin, 37° C., 2 days
# Procedure: Peripheral nerves were harvested from Sprague Dawley rats and decellularized according to an apoptosis-assisted protocol using 10 μM camptothecin in non-supplemented media at 37° C. for 2 days. Tissue in media without camptothecin was used as a control. Apoptotic agent treatment was succeeded by washes in saline buffered solutions to optimize cell removal. The degree of apoptosis, cellular removal, and matrix preservation was assessed using immunochemistry on nerve tissue sections and fluorescence imaging. Antibodies used to identify apoptosis, cell removal, and tissue preservation include those against active caspase 3 (Abcam); neurofilament (RT-97, DSHB) and 5100 (Dako); and laminin (Sigma), respectively, Apoptosis-mediated DNA fragmentation was assessed using a terminal deoxynucleotidyl transferase dUTP nick end labeling (TUNEL) assay. Total DNA content was quantified using a Picogreen DNA assay (Life Technologies) according to manufacturer's instructions. […] For FIGS. 5A and 5B, the images are fresh nerve (top half) and apoptosis decellularized nerve (bottom half). FIG. 5A was labeled for neurons (neurofilament, green), Schwann cells (S100, red), and nuclei (DAPI, blue). […] Induction of apoptosis was confirmed in treated nerve tissue by an increase in active caspase 3, an early mediator of apoptosis. […]
# rat sciatic nerve [3] = assay: QuantiFluor dsDNA assay, residual DNA content in tissue; settings: apoptosis decellularization, QuantiFluor dsDNA kit
# Description: (§1) Briefly, the injectable tissue hydrogels of this Example were generated by digesting rat sciatic nerves that had been decellularized by inducing cell […] (or apoptosis). Apoptosis can cause cells to form small apoptotic bodies containing cellular components, which can be more easily removed from the matrix. This approach has the potential to enhance matrix preservation and bioactivity, thus having a major impact on tissue engineering. In this Example, rat sciatic nerves were first harvested and decellularized by inducing apoptosis (described elsewhere herein and e,g. FIG. 11). Washing in camptothecin can induce apoptosis. Hypertonic washing (e,g. 4× PBS) can aid in cell removal. DNase treatment can degrade residual DNA content. Treatment with Chondroitinase ABC can be used to remove inhibitory proteoglycans. After the decellularization process, the resulting decellularized tissue can undergo enzymatic processing and further processing to balance pH where necessary. In some cases the decellularized tissue can be lyophilized prior to enzymatic digestion. In this particular example, pepsin was used to digest tissue at an acidic pH. After about […] of enzymatic digestion, the solution can be neutralized and isotonically balanced. The solution was further diluted with PBS. In some embodiments, the solution was diluted to 1/9 th of its volume in 10× PBS. […]
# rat sciatic nerve [4] = assay: TUNEL assay, preliminary studies; settings: samples treated with camptothecin
# Description: as §1
structure (smiles),measurement,setting,value
CC[C@@]1(O)C(=O)OCc2c1cc1n(c2=O)Cc2cc3ccccc3nc2-1 [camptothecin],reduction in DNA compared to fresh nerve,"peripheral nerve tissue [1]; 5 μM camptothecin 1 day, hypertonic then hypotonic wash",71.9%
same,reduction in DNA compared to fresh nerve,"peripheral nerve tissue [1]; 5 μM camptothecin 1 day, hypotonic wash replaced with DNAse treatment",95.1%
same,reduction in DNA compared to fresh nerve,"peripheral nerve tissue [1]; 10 μM camptothecin 1 day, hypertonic then hypotonic wash",57.3%
same,reduction in DNA compared to fresh nerve,"peripheral nerve tissue [1]; 10 μM camptothecin 1 day, hypotonic wash replaced with DNAse treatment",95.8%
same,apoptosis ex vivo (caspase 3 activation and DNA fragmentation),peripheral nerve tissue [2],sufficient to elicit aspects of apoptosis ex vivo
same,DNA removal,rat sciatic nerve [3],greater than 90%
same,apoptosis by TUNEL assay,rat sciatic nerve [4],enhanced apoptosis
